Values quoted from earlier work, collected in patent US5008256A, “Salts of ranitidine and complexes of bismuth with carboxylic acids, and pharmaceutical compositions thereof” (Glaxo Group Limited, priority 1988, dated 1991).

Columns and labels:
histamine H2 receptor = conditions: background; in words
Campylobacter pylori = conditions: background; in words

Structure (SMILES)	histamine H2-antagonist activity (histamine H2 receptor)	susceptibility of Campylobacter pylori (Campylobacter pylori)
CNC(=C[N+](=O)[O-])NCCSCc1ccc(CN(C)C)o1 [Ranitidine, N-[2-[[[5-[(dimethylamino)-methyl]-2-furanyl]methyl]thio]ethyl]-N'-methyl-2-nitro-1,1-ethenediamine]	potent histamine H2 -antagonist	–
O=C([O-])CC(O)(CC(=O)[O-])C(=O)[O-].O=C([O-])CC(O)(CC(=O)[O-])C(=O)[O-].[Bi+3].[K+].[K+].[K+] [bismuth subcitrate, tripotassium dicitrato bismuthate]	–	susceptible
